Laboratory results: patent publication US20120184590A1, “FORMULATIONS OF INDOLE-3-CARBINOL DERIVED ANTITUMOR AGENTS WITH INCREASED ORAL BIOAVAILABILITY” (UNIVERSITY OF KANSAS, priority 2009, published 2012)

Experiments:
[1] = Green C., unpublished results; cited from earlier work
[2] = Time for syringe dosage forms to dissolve in warm water; format: physicochemical; settings: shaken in warm water (approximately 40° C.)
Description: A similar set of sample tubes was prepared for a monkey study. Twenty-eight tubes with 11.2±0.1 g of 5 mg/g SR13668 in Solutol were prepared providing a dose of 56 mg SR13668 per tube. A set of 3-mL disposable plastic syringes were prepared containing a 5 mg dose of SR13668 in either Solutol, Vit E TPGS or 1:1 Solutol:Vit E TPGS. The syringes were prepared so the dosage form could be pushed out and dissolved in warm water to administer to monkeys by gavage. The syringes were prepared by (a) cutting off the tip-end at the 0.1 mL mark of a plastic, disposable 3-mL syringe, (b) pulling back the plunger, (c) filling the syringe by weight with the liquid melt at 65° C. to give the correct dosage and (d) allowing the formulation to harden. Each formulation contained between 3.5-4.2 mg SR13668/g matrix and approximately 1.2 g of the formulation was needed in each syringe to give a 5 mg dose. The syringes were fairly easy to make and to expel the dosage form into warm water. The doses where shaken in warm water (approximately 40° C.) and took the following amounts of time to dissolve: <1 min. for Solutol, 15 min for 1:1 Solutol:Vit E TPGS, and 37 min for Vit E TPGS.

[3] = Oral bioavailability of PEG400:Labrasol formulation in rats; settings: rat, in vivo
[4] = Stability of SR13668 in Solutol (25° C. and 4° C.), HPLC/Fluorescence; format: physicochemical; settings: for stability: 25° C. and 4° C.; for SR13668 assay, stability of SR13668/Solutol aqueous solution: aqueous sample (theoretical 1.2000); for SR13668 assay, stability in Solutol: solid sample in Eppendorf tube
Description: A batch of 5 mg SR13668/g Solutol was made by stirring at 95° C. for 24 hrs. […] The sample was centrifuged while warm and no crystals were observed on the bottom of the tube. The sample was assayed from the top, middle and bottom of the centrifuge tube and there was no significant difference in the measurements. The SR13668 assay is an isocratic HPLC method with Fluorescence detection. The SR13668 concentration in Solutol was determined to be 5.00±0.09 mg/g (n=5).
Three types of samples from the above formulation (a. Solid Samples, b. Aqueous Solution and c. Solid stored and combined with water before assay) were stored at 25° C. (constant temperature bath) and 4° C. (refrigerator) and assayed weekly with the same HPLC/Fluorescence analytical method for 1-month.
Eppendorf tubes containing 1-mL samples of the above 5 mg SR13668/g Solutol solution were capped and stored under the two temperature conditions described above. At each time point the samples were melted and centrifuged at 95° C. No solids were ever observed in these samples.
In a 50-mL centrifuge tube, 12 g of the 5 mg SR13668/g Solutol melt was accurately weighed. The tube was tared and water, warmed to 70° C., was added to the 50 mL mark on the tube and weighed. The concentration of SR13668 in the aqueous solution was calculated based on the average SR13668/Solutol concentration of 5.00±0.09 mg/g, the weight of the Solutol and the total weight of solution in the tube. The tube was stored under the two temperature conditions described previously and the assayed amounts were compared with the theoretical. Observations were made on the tubes and there were no significant changes in the solutions and no solids were observed. The 25° C. tube did get a cloudy film layer, possibly biological growth. The layer dispersed after vigorous shaking. The 4° C. samples are cloudy, but clear up when warmed to room temperature. See results Table 8 and FIG. 5.
An accurately weighed 200 mg aliquot of the above 5 mg/g Solutol solution was stored at 25° C. and 4° C. At each time point, the solids were melted at 90° C. and 800 mg of accurately weighed 90° C. water was added. The samples were mixed and observations made. In all cases no solids were observed. A sample aliquot of the above aqueous solution was analyzed by HPLC/Fluorescence and the results compared with theoretical. See results Table 9 and FIG. 6. The analytical method is validated ±5% from theoretical. The majority of the samples fell within this limit.

[5] = stored as solid, prepared as aqueous solution, 4° C. storage, 0
[6] = stored as solid, prepared as aqueous solution, 4° C. storage, Day
[7] = stored as solid, prepared as aqueous solution, 4° C. storage, Day 7
[8] = stored as solid, prepared as aqueous solution, 4° C. storage, Day 14
[9] = stored as solid, prepared as aqueous solution, 4° C. storage, Day 21
[10] = stored as solid, prepared as aqueous solution, 4° C. storage, Day 28
[11] = stored as solid, prepared as aqueous solution, 25° C. storage, 0
[12] = stored as solid, prepared as aqueous solution, 25° C. storage, Day
[13] = stored as solid, prepared as aqueous solution, 25° C. storage, Day 7
[14] = stored as solid, prepared as aqueous solution, 25° C. storage, Day 14
[15] = stored as solid, prepared as aqueous solution, 25° C. storage, Day 21
[16] = stored as solid, prepared as aqueous solution, 25° C. storage, Day 28

CCOC(=O)c1ccc2[nH]c3c(OC)c4[nH]c5ccc(C(=O)OCC)cc5c4cc3c2c1 [SR13668, 2,10-dicarbethoxy-6-methoxy-5,7-dihydro-indolo-(2,3-b)carbazole]
metabolism in rat microsomes [1]: slow metabolism
time to dissolve ([2]; 5 mg dose of SR13668 in 1:1 Solutol:Vit E TPGS): 15 min
time to dissolve ([2]; 5 mg dose of SR13668 in Solutol): < 1 min
time to dissolve ([2]; 5 mg dose of SR13668 in Vit E TPGS): 37 min
bioavailability [3]: < 1%
stability ([4]; 5 mg SR13668/g Solutol, solid samples): stable within the error of the assay and no degradation was observed
stability ([4]; SR13668/Solutol aqueous solution): stable within error and no drug degradation was observed
SR13668 assay, stability of SR13668/Solutol aqueous solution ([4]; 4° C. storage, Day): 1.1384 mg SR13668/g Solutol
SR13668 assay, stability of SR13668/Solutol aqueous solution ([4]; 4° C. storage, Day 7): 1.1758 mg SR13668/g Solutol
SR13668 assay, stability of SR13668/Solutol aqueous solution ([4]; 4° C. storage, Day 14): 1.1981 mg SR13668/g Solutol
SR13668 assay, stability of SR13668/Solutol aqueous solution ([4]; 4° C. storage, Day 21): 1.2509 mg SR13668/g Solutol
SR13668 assay, stability of SR13668/Solutol aqueous solution ([4]; 4° C. storage, Day 28): 1.1985 mg SR13668/g Solutol
SR13668 assay, stability of SR13668/Solutol aqueous solution ([4]; 4° C. storage, Day 35): 1.1814 mg SR13668/g Solutol
SR13668 assay, stability of SR13668/Solutol aqueous solution ([4]; 25° C. storage, Day): 1.5040 mg SR13668/g Solutol
SR13668 assay, stability of SR13668/Solutol aqueous solution ([4]; 25° C. storage, Day 7): 1.1311 mg SR13668/g Solutol
SR13668 assay, stability of SR13668/Solutol aqueous solution ([4]; 25° C. storage, Day 14): 1.2256 mg SR13668/g Solutol
SR13668 assay, stability of SR13668/Solutol aqueous solution ([4]; 25° C. storage, Day 21): 1.2663 mg SR13668/g Solutol
SR13668 assay, stability of SR13668/Solutol aqueous solution ([4]; 25° C. storage, Day 28): 1.2116 mg SR13668/g Solutol
SR13668 assay, stability of SR13668/Solutol aqueous solution ([4]; 25° C. storage, Day 35): 1.1942 mg SR13668/g Solutol
SR13668 assay, stability in Solutol ([4]; 4° C. storage, 0 (t = 0 melt samples)): 5.00 mg SR13668/g Solutol
SR13668 assay, stability in Solutol ([4]; 4° C. storage, Day): 5.05 mg SR13668/g Solutol
SR13668 assay, stability in Solutol ([4]; 4° C. storage, Day 7): 4.97 mg SR13668/g Solutol
SR13668 assay, stability in Solutol ([4]; 4° C. storage, Day 14): 5.33 mg SR13668/g Solutol
SR13668 assay, stability in Solutol ([4]; 4° C. storage, Day 21): 5.06 mg SR13668/g Solutol
SR13668 assay, stability in Solutol ([4]; 4° C. storage, Day 28): 4.97 mg SR13668/g Solutol
SR13668 assay, stability in Solutol ([4]; 4° C. storage, Day 35): 4.87 mg SR13668/g Solutol
SR13668 assay, stability in Solutol ([4]; 25° C. storage, 0 (t = 0 melt samples)): 5.00 mg SR13668/g Solutol
SR13668 assay, stability in Solutol ([4]; 25° C. storage, Day): 4.93 mg SR13668/g Solutol
SR13668 assay, stability in Solutol ([4]; 25° C. storage, Day 7): 5.10 mg SR13668/g Solutol
SR13668 assay, stability in Solutol ([4]; 25° C. storage, Day 14): 5.19 mg SR13668/g Solutol
SR13668 assay, stability in Solutol ([4]; 25° C. storage, Day 21): 5.14 mg SR13668/g Solutol
SR13668 assay, stability in Solutol ([4]; 25° C. storage, Day 28): 5.00 mg SR13668/g Solutol
SR13668 assay, stability in Solutol ([4]; 25° C. storage, Day 35): 4.93 mg SR13668/g Solutol
stability ([4]; stored as solid, prepared as aqueous solution): no trends or indications that the samples are unstable
% difference from Theory [4, 5]: −6.71%
Measured mg SR13668/g Solutol [4, 5]: 0.9238 mg SR13668/g Solutol
% difference from Theory [4, 6]: −7.00%
Measured mg SR13668/g Solutol [4, 6]: 0.8804 mg SR13668/g Solutol
% difference from Theory [4, 7]: 0.78%
Measured mg SR13668/g Solutol [4, 7]: 0.9866 mg SR13668/g Solutol
% difference from Theory [4, 8]: 2.91%
Measured mg SR13668/g Solutol [4, 8]: 1.0608 mg SR13668/g Solutol
% difference from Theory [4, 9]: −2.29%
Measured mg SR13668/g Solutol [4, 9]: 0.9809 mg SR13668/g Solutol
% difference from Theory [4, 10]: −4.87%
Measured mg SR13668/g Solutol [4, 10]: 0.9160 mg SR13668/g Solutol
% difference from Theory [4, 11]: −11.50%
Measured mg SR13668/g Solutol [4, 11]: 0.8630 mg SR13668/g Solutol
% difference from Theory [4, 12]: −6.56%
Measured mg SR13668/g Solutol [4, 12]: 0.9955 mg SR13668/g Solutol
% difference from Theory [4, 13]: 3.38%
Measured mg SR13668/g Solutol [4, 13]: 1.0308 mg SR13668/g Solutol
% difference from Theory [4, 14]: 3.40%
Measured mg SR13668/g Solutol [4, 14]: 0.9609 mg SR13668/g Solutol
% difference from Theory [4, 15]: −5.45%
Measured mg SR13668/g Solutol [4, 15]: 0.9374 mg SR13668/g Solutol
% difference from Theory [4, 16]: −4.84%
Measured mg SR13668/g Solutol [4, 16]: 0.9372 mg SR13668/g Solutol
